Results published in patent publication US11198713B2, “Agents modulating beta-catenin functions and methods thereof” (FOG PHARMACEUTICALS, INC., priority 2017, dated 2021).
pEC50: −log10 of the molar value. Numbered stars: 1 amine (or outer) side, 2 acyl side, 3 side chain; on linkers, the order of the positions; unused ones are H or OH. Bridge positions count the residues as written; N and C are the ends. Square brackets hold non-standard residues; d marks the D form. Peptide text beside a SMILES is read from it. dαMeOrn(Me) = CN(CCC[C@@](C)(N[*:1])C(=O)[*:2])[*:3]; αMeDab(Me) = CN(CC[C@](C)(N[*:1])C(=O)[*:2])[*:3]; X2 = O=C(OCC=CCOC(=O)[*:2])[*:1]

The compounds below were run against T1, full-length beta-catenin (Axin site) (Homo sapiens, UniProt P35222) (assay: Competition fluorescence polarization assay (Axin site probe)). Conditions: competition fluorescence polarization, Table 2; read-out: in vitro FP EC50.
T1 construct: 15 nM full-length beta-catenin, 20 nM FITC labeled peptide in buffer
T1 sequence (P35222 1-781): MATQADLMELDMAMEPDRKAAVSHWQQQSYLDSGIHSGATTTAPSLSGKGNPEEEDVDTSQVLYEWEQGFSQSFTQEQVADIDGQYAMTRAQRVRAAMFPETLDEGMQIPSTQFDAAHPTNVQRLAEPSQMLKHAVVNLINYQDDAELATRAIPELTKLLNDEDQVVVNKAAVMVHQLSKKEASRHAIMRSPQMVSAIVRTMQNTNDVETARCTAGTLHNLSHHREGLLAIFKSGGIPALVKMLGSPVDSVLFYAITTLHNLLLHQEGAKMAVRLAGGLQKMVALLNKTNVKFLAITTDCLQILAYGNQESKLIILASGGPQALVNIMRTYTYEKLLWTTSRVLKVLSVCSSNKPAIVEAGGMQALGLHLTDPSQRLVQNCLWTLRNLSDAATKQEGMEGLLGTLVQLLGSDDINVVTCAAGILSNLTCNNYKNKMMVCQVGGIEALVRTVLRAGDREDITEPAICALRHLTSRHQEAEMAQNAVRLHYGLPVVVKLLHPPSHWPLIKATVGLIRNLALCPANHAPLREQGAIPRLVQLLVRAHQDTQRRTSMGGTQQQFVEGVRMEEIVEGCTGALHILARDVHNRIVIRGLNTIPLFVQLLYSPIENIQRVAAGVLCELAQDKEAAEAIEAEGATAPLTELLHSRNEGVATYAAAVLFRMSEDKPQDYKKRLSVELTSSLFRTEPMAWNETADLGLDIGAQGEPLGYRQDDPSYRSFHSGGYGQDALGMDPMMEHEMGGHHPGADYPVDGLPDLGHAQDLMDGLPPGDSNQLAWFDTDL
Format: binding
Procedure, shortened: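 Competition FP: 15 nM full-length β-catenin pre-incubated 5 min with 20 nM FITC-labelled stapled Axin-site peptide, then titrated peptide added (3-fold series from 5 μM) for 15 min in the dark. Buffer 50 mM Tris pH 8.0, 250 mM NaCl, 2% glycerol, 0.5 mM EDTA; duplicate reads.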

`CC[C@H](C)[C@@H]1NC(=O)[C@H](Cc2ccccn2)NC(=O)[C@H](C)NC(=O)[C@H](CC(=O)O)NC(=O)[C@H](CC(C)C)NC(=O)[C@H]([C@@H](C)CC)NC(=O)[C@](C)(NC(=O)[C@H](C)NC(C)=O)CCCCCCC=CCOC(=O)N2CC[C@@](C(=O)N[C@H](C(=O)N[C@H](C(=O)N[C@@H](Cc3c[nH]c4ccccc34)C(N)=O)C(C)C)C(C)C)(C2)NC1=O` (single isomer, unassigned) [FP0562c Isomer 1, Ac-A-R8-I-L-D-A-2pyr-I-MB-V-V-W-NH2] and `CC[C@H](C)[C@@H]1NC(=O)[C@H](Cc2ccccn2)NC(=O)[C@H](C)NC(=O)[C@H](CC(=O)O)NC(=O)[C@H](CC(C)C)NC(=O)[C@H]([C@@H](C)CC)NC(=O)[C@](C)(NC(=O)[C@H](C)NC(C)=O)CCCCCCC=CCOC(=O)N2CC[C@@](C(=O)N[C@H](C(=O)N[C@H](C(=O)N[C@@H](Cc3c[nH]c4ccccc34)C(N)=O)C(C)C)[C@@H](C)CC)(C2)NC1=O` (single isomer, unassigned) [FP0556c Isomer 2, Ac-A-R8-I-L-D-A-2pyr-I-MB-I-V-W-NH2] cannot be ordered by pEC50: < 5.30 for the first, < 5.30 for the second.

First: CC[C@H](C)[C@@H]1NC(=O)[C@](C)(NC(=O)[C@H](CCC(N)=O)NC(=O)[C@@H]2CCCN2C(C)=O)CCN(C)C(=O)OCC=CCCC[C@](C)(C(=O)N[C@@H](Cc2c[nH]cn2)C(=O)N[C@H](C(=O)N[C@@H](CCCNC(=N)N)C(=O)N[C@@H](CCCNC(=N)N)C(=O)N[C@H](C(=O)N[C@@H](Cc2c[nH]c3ccccc23)C(=O)N[C@@H](CCCNC(=N)N)C(N)=O)C(C)C)C(C)C)NC(=O)[C@H](CC(=O)O)NC(=O)[C@H](CC(C)C)NC1=O (single isomer, unassigned) [FP0782c, Ac-P-Q-MG-I-L-D-R5-H-V-R-R-V-W-R-NH2]
Second: CC[C@H](C)[C@@H]1NC(=O)[C@@]2(NC(=O)[C@H](CCC(N)=O)NC(=O)[C@@H]3CCCN3C(C)=O)CCN(C2)C(=O)OCC=CCCC[C@](C)(C(=O)N[C@@H](Cc2c[nH]cn2)C(=O)N[C@H](C(=O)N[C@@H](CCCNC(=N)N)C(=O)N[C@@H](CCCNC(=N)N)C(=O)N[C@H](C(=O)N[C@@H](Cc2c[nH]c3ccccc23)C(=O)N[C@@H](CCCNC(=N)N)C(N)=O)C(C)C)C(C)C)NC(=O)[C@H](CC(=O)O)NC(=O)[C@H](CC(C)C)NC1=O (single isomer, unassigned) [FP0743c, Ac-P-Q-MC-I-L-D-R5-H-V-R-R-V-W-R-NH2]
The pEC50 of the first is higher: 6.30 to 7.00 for the first, 5.30 to 6.30 for the second.

`CC[C@H](C)[C@@H]1NC(=O)[C@H](Cc2ccccn2)NC(=O)[C@H](C)NC(=O)[C@H](CC(=O)O)NC(=O)[C@H](CC(C)C)NC(=O)[C@H]([C@@H](C)CC)NC(=O)[C@](C)(NC(=O)[C@H](C)NC(C)=O)CCCCCCC=CCOC(=O)N2CC[C@@](C(=O)N[C@@H](Cc3ccc(OC)cc3)C(=O)N[C@H](C(=O)N[C@@H](Cc3c[nH]c4ccccc34)C(N)=O)C(C)C)(C2)NC1=O` (single isomer, unassigned) [FP0575c Isomer 1, Ac-A-R8-I-L-D-A-2pyr-I-MB-MeY-V-W-NH2] and `CC[C@H](C)[C@@H]1NC(=O)[C@H](Cc2ccccn2)NC(=O)[C@H](C)NC(=O)[C@H](CC(=O)O)NC(=O)[C@H](CC(C)C)NC(=O)[C@H]([C@@H](C)CC)NC(=O)[C@](C)(NC(=O)[C@H](C)NC(C)=O)CCCCCCC=CCOC(=O)N2CC[C@@](C(=O)N[C@@H](Cc3ccc(O)cc3)C(=O)N[C@H](C(=O)N[C@@H](Cc3c[nH]c4ccccc34)C(N)=O)C(C)C)(C2)NC1=O` (single isomer, unassigned) [FP0564c Isomer 1, Ac-A-R8-I-L-D-A-2pyr-I-MB-Y-V-W-NH2] cannot be ordered by pEC50: < 5.30 for the first, < 5.30 for the second.

First: CC[C@H](C)[C@@H]1NC(=O)[C@H](Cc2ccccn2)NC(=O)[C@H](C)NC(=O)[C@H](CC(=O)O)NC(=O)[C@H](CC(C)C)NC(=O)[C@H]([C@@H](C)CC)NC(=O)[C@](C)(NC(=O)[C@H](C)NC(C)=O)CCCCCCC=CCOC(=O)N2CC[C@@](C(=O)NC(C)(C)C(=O)N[C@H](C(=O)N[C@@H](Cc3c[nH]c4ccccc34)C(N)=O)C(C)C)(C2)NC1=O (single isomer, unassigned) [FP0570c Isomer 1, Ac-A-R8-I-L-D-A-2pyr-I-MB-Aib-V-W-NH2]
Second: CC[C@H](C)[C@@H]1NC(=O)[C@H](Cc2c[nH]cn2)NC(=O)[C@H](C)NC(=O)[C@H](CC(=O)O)NC(=O)[C@H](CC(C)C)NC(=O)[C@H]([C@@H](C)CC)NC(=O)[C@](C)(NC(=O)[C@H](C)NC(C)=O)CN(C)C(=O)OCC=CCCCCCC[C@@](C)(C(=O)N[C@@H](CCCNC(=N)N)C(=O)N[C@H](C(=O)N[C@@H](Cc2c[nH]c3ccccc23)C(N)=O)C(C)C)NC1=O (single isomer, unassigned) [FP0335c Isomer 1, Ac-A-ME-I-L-D-A-H-I-S8-R-V-W-NH2]
The pEC50 of the first is lower: < 5.30 for the first, 6.30 to 7.00 for the second. The second is the more potent here.

Compared with `CC[C@H](C)[C@@H]1NC(=O)[C@]2(NC(=O)[C@H](CCC(N)=O)NC(=O)[C@@H]3CCCN3C(C)=O)CCN(C2)C(=O)OCC=CCCC[C@@](C)(C(=O)N[C@@H](Cc2c[nH]cn2)C(=O)N[C@H](C(=O)N[C@@H](CCCNC(=N)N)C(=O)N[C@@H](CCCNC(=N)N)C(=O)N[C@H](C(=O)N[C@@H](Cc2c[nH]c3ccccc23)C(=O)N[C@@H](CCCNC(=N)N)C(N)=O)C(C)C)C(C)C)NC(=O)[C@H](CC(=O)O)NC(=O)[C@H](CC(C)C)NC1=O` (single isomer, unassigned) [FP0751c, Ac-P-Q-MB-I-L-D-S5-H-V-R-R-V-W-R-NH2], `CC[C@H](C)[C@@H]1NC(=O)[C@](C)(NC(=O)[C@H](CCC(N)=O)NC(=O)[C@@H]2CCCN2C(C)=O)CCCCCC=CCOC(=O)N2CC[C@](C(=O)N[C@@H](Cc3c[nH]cn3)C(=O)N[C@H](C(=O)N[C@@H](CCCNC(=N)N)C(=O)N[C@@H](CCCNC(=N)N)C(=O)N[C@H](C(=O)N[C@@H](Cc3c[nH]c4ccccc34)C(=O)N[C@@H](CCCNC(=N)N)C(N)=O)C(C)C)C(C)C)(C2)NC(=O)[C@H](CC(=O)O)NC(=O)[C@H](CC(C)C)NC1=O` (single isomer, unassigned) [FP0768c, Ac-P-Q-R7-I-L-D-MC-H-V-R-R-V-W-R-NH2] is higher in pEC50: 5.30 to 6.30 for the first, 6.30 to 7.00 for the second.

Compared with `CC[C@H](C)[C@@H]1NC(=O)[C@@](C)(NC(=O)[C@H](CCC(N)=O)NC(=O)[C@@H]2CCCN2C(C)=O)CCCCC=CCOC(=O)N2CC(C(=O)N[C@@H](Cc3c[nH]cn3)C(=O)N[C@H](C(=O)N[C@@H](CCCNC(=N)N)C(=O)N[C@@H](CCCNC(=N)N)C(=O)N[C@H](C(=O)N[C@@H](Cc3c[nH]c4ccccc34)C(=O)N[C@@H](CCCNC(=N)N)C(N)=O)C(C)C)C(C)C)(C2)NC(=O)[C@H](CC(=O)O)NC(=O)[C@H](CC(C)C)NC1=O` (single isomer, unassigned) [FP0736c, Ac-P-Q-S6-I-L-D-MA-H-V-R-R-V-W-R-NH2], `CC[C@H](C)[C@@H]1NC(=O)[C@H](Cc2c[nH]cn2)NC(=O)[C@H](C)NC(=O)[C@H](CC(=O)O)NC(=O)[C@H](CC(C)C)NC(=O)[C@H]([C@@H](C)CC)NC(=O)[C@](C)(NC(=O)[C@H](C)NC(C)=O)CCCCCC=CCN2CC(C(=O)N[C@@H](CCCNC(=N)N)C(=O)N[C@H](C(=O)N[C@@H](Cc3c[nH]c4ccccc34)C(N)=O)C(C)C)(C2)NC1=O` (single isomer, unassigned) [FP0516a Isomer 1, Ac-A-R7-I-L-D-A-H-I-MA-R-V-W-NH2] is higher in pEC50: 5.30 to 6.30 for the first, 6.30 to 7.00 for the second. The second is the more potent here.

For `CC[C@H](C)[C@@H]1NC(=O)[C@H](Cc2c[nH]cn2)NC(=O)[C@H](C)NC(=O)[C@H](CC(=O)O)NC(=O)[C@H](CC(C)C)NC(=O)[C@H]([C@@H](C)CC)NC(=O)[C@](C)(NC(=O)[C@H](C)NC(C)=O)CCCN(C)C(=O)OCC=CCOC(=O)N(C)CC[C@@](C)(C(=O)N[C@@H](CCCNC(=N)N)C(=O)N[C@H](C(=O)N[C@@H](Cc2c[nH]c3ccccc23)C(N)=O)C(C)C)NC1=O` [FP0587c, Ac-A-MI-I-L-D-A-H-I-MF-R-V-W-NH2] (Ac-A[dαMeOrn(Me)]ILDAHI[αMeDab(Me)]RVW-NH2; linker 2-9 via X2), the pEC50 was > 7.00.

Same assay, conditions: competition with FITC labeled Axin-site probe, 15 nM full-length beta-catenin; read-out: FP EC50

Going from `CC[C@H](C)[C@@H]1NC(=O)C2(NC(=O)[C@H](CCC(N)=O)NC(=O)[C@@H]3CCCN3C(C)=O)CN(CC=CCCCC[C@](C)(C(=O)N[C@@H](Cc3c[nH]cn3)C(=O)N[C@H](C(=O)N[C@@H](CCCNC(=N)N)C(=O)N[C@@H](CCCNC(=N)N)C(=O)N[C@H](C(=O)N[C@@H](Cc3c[nH]c4ccccc34)C(=O)N[C@@H](CCCNC(=N)N)C(N)=O)C(C)C)C(C)C)NC(=O)[C@H](CC(=O)O)NC(=O)[C@H](CC(C)C)NC1=O)C2` (single isomer, unassigned) [FP-0725, Ac-P-Q-Az-I-L-D-R6-H-V-R-R-V-W-R-NH2] to `CC[C@H](C)[C@@H]1NC(=O)[C@](C)(NC(=O)[C@H](CCC(N)=O)NC(=O)[C@@H]2CCCN2C(C)=O)CCCCC=CCOC(=O)N2CC[C@](C(=O)N[C@@H](Cc3c[nH]cn3)C(=O)N[C@H](C(=O)N[C@@H](CCCNC(=N)N)C(=O)N[C@@H](CCCNC(=N)N)C(=O)N[C@H](C(=O)N[C@@H](Cc3c[nH]c4ccccc34)C(=O)N[C@@H](CCCNC(=N)N)C(N)=O)C(C)C)C(C)C)(C2)NC(=O)[C@H](CC(=O)O)NC(=O)[C@H](CC(C)C)NC1=O` (single isomer, unassigned) [FP-0767c, Ac-P-Q-R6-I-L-D-PR-H-V-R-R-V-W-R-NH2], the pEC50 rises from 6.24 to 6.96 (0.72 log units).
